Results: patent publication US5792775A (priority 1996, dated 1998)
Entries after “also recorded” stand apart in the source; their conditions may differ. Where two headings read alike, the source gives them in different places.

Legend:
muscarinic m1 receptors = biological target: T1, muscarinic m1 receptors (Rattus norvegicus, UniProt P08482); assay: biochemical; type: binding
T1 sequence (P08482 1-460): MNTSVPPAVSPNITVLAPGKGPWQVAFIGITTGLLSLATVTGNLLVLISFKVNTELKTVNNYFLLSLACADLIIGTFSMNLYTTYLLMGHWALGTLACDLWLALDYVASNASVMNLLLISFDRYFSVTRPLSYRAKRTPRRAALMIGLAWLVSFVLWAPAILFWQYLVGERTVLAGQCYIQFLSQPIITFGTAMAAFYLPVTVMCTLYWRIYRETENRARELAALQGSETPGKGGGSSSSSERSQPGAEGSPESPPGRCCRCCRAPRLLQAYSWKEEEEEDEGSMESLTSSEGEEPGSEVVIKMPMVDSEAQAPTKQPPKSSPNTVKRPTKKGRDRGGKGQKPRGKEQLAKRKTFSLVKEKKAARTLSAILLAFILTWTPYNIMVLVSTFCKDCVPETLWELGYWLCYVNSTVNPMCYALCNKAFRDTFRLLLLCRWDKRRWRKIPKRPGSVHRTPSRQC

muscarinic m2 receptors = biological target: T2, muscarinic m2 receptors (Rattus norvegicus, UniProt P10980); assay: Muscarinic m2 receptor binding ([^3 H]AFDX 384), NOVASCREEN; details: for muscarinic m2 affinity relative to dopamine transporter affinity: in words
T2 sequence (P10980 1-466): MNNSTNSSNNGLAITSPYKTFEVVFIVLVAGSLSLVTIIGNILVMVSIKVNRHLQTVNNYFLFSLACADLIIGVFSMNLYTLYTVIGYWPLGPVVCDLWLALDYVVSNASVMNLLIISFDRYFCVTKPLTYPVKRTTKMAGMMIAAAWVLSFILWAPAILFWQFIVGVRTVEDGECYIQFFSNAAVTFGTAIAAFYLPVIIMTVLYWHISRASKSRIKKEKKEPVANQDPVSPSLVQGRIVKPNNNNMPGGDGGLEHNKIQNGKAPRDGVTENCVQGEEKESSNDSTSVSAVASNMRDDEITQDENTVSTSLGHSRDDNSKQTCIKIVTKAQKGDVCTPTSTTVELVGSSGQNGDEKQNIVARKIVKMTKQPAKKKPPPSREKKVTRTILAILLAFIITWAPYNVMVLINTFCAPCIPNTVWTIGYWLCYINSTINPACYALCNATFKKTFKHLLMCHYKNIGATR
From the text: (§1) Serotonin (5-HTT), norepinephrine transporter (NET) and muscarinic m1 and m2 receptor binding data were provided by NOVASCREEN.

[1] = biological target: norepinephrine transporter (NET) (Rattus norvegicus, UniProt Q63380); assay: biochemical; type: binding
[2] = system: dopamine uptake, rat caudate putamen; type: biochemical
[3] = biological target: serotonin transporter (5HTT) (Rattus norvegicus, UniProt P31652); assay: Serotonin transporter binding ([^3 H]citalopram), NOVASCREEN
From the text: as §1

[4] = biological target: T3, dopamine transporter (DAT) (Rattus norvegicus, UniProt P23977); assay: Displacement of [^3 H]WIN 35,428 binding (Dopamine Transporter Binding Assay); details: for Ki: Table III, displacement of [^3 H]WIN 35,428, rat caudate putamen, % error in parentheses
T3 construct: brains removed to an ice-cooled dish for dissection of the caudate putamen; from tissue; host or cells: rat caudate putamen, washed membranes of male Sprague-Dawley rats (Taconic)

[5] = Table IV, head prints no unit, IC50 in nM, read-out: [^3 H]DAU (inhibition of [^3 H]-Dopamine Uptake)
[6] = read-out: NET, % Inhibition at 10 μM
[7] = Table V, rat caudate putamen, read-out: [^3 H]DA Uptake Inhibition IC50
[8] = Table III, footnote d, read-out: 5HTT Ki value in nM (bracketed)
[9] = Table III footnote b, read-out: m2, % Inhibition of radiolabeled ligand binding

Sequence of norepinephrine transporter (NET) (Q63380 1-617): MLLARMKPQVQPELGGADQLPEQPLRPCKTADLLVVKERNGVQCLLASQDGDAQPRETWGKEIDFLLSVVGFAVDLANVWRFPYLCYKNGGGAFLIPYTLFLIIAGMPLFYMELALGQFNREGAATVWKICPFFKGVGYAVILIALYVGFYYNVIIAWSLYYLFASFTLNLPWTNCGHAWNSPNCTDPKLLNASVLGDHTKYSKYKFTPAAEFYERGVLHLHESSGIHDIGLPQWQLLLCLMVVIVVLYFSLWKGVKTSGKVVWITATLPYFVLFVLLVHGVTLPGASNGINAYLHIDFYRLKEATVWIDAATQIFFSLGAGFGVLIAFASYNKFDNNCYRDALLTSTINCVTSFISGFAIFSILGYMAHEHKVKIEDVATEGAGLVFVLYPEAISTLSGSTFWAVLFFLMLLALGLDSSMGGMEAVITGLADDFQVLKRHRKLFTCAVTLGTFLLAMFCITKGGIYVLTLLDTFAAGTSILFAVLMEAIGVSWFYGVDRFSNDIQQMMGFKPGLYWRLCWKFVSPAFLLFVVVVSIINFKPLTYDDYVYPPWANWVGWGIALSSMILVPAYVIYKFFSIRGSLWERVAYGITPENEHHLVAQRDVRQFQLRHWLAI
Sequence of serotonin transporter (5HTT) (P31652 whole entry): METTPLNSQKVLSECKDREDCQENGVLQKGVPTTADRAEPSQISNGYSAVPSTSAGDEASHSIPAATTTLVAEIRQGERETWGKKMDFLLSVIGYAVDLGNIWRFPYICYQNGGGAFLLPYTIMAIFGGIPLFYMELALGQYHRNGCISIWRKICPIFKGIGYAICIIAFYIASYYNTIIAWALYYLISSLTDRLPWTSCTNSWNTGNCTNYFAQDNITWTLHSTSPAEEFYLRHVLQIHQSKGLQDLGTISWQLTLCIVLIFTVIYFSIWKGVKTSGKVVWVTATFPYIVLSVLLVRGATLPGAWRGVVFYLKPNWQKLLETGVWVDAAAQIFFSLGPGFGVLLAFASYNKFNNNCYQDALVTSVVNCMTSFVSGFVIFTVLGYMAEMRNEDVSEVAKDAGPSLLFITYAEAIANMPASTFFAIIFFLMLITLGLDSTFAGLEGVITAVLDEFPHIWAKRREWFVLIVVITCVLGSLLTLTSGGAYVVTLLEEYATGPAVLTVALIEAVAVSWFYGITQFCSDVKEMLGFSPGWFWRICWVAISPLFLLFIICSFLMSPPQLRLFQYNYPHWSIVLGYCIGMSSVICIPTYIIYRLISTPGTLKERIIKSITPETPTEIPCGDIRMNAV
T3 sequence (P23977 whole entry): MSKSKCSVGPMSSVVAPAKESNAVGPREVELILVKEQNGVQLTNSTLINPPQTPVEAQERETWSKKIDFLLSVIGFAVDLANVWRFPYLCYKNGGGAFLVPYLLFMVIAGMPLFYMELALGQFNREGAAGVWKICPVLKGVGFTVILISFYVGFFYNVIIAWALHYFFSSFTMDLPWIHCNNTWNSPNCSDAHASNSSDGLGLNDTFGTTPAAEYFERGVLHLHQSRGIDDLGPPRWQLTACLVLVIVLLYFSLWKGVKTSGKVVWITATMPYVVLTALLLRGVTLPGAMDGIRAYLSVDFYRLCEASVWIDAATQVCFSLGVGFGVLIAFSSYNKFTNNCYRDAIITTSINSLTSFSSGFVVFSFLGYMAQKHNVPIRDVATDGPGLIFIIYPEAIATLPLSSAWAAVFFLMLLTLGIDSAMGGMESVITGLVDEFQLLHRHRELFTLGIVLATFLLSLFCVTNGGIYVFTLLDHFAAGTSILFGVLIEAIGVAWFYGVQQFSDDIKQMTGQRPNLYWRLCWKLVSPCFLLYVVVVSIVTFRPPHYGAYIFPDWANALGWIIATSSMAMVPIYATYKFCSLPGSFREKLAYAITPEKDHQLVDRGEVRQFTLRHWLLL

Row | SMILES | IC50 [2, 5] [nM] | inhibition at 10 µM ([3]; read-out: 5HTT (% I@10 μM)) [%] | inhibition at 10 µM ([1]; read-out: NET (% I@10 μM)) [%] | IC50 [2, 7] [nM] | Ki (muscarinic m2 receptors; Table III) [µM] | Ki (muscarinic m1 receptors; Table III, read-out: m1, Ki) [µM] | Ki [4] [nM] | other results
1 | Fc1ccc(C(O[C@H]2C[C@H]3CC[C@@H](C2)N3)c2ccc(F)cc2)cc1 [AHN 2-003, N-nor-4',4"-difluorobenztropine] | 10 |  |  |  |  |  |  | Ki (muscarinic m1 receptors; Table IV, read-out: m1, Ki): 0.0907 µM; Ki (muscarinic m2 receptors; Table IV): 0.62 µM; Ki [1]: > 8000 nM
2 | C=CCN1[C@@H]2CC[C@H]1C[C@@H](OC(c1ccc(F)cc1)c1ccc(F)cc1)C2 [AHN 2-005, N-allyl-4',4"-difluorobenztropine] | 14 |  |  |  |  |  |  | Ki (muscarinic m1 receptors; Table IV, read-out: m1, Ki): 0.0891 µM; Ki (muscarinic m2 receptors; Table IV): 0.254 µM; Ki [3]: 1970 nM; inhibition at 10 µM [1, 6]: 22.1%
3 | Fc1ccc(C(O[C@H]2C[C@H]3CC[C@@H](C2)N3CC=Cc2ccccc2)c2ccc(F)cc2)cc1 [AHN 2-006] | 184 |  |  |  |  |  |  | Ki (muscarinic m1 receptors): 0.24 µM; Ki (muscarinic m2 receptors; Table IV): 1.59 µM; Ki [3]: 1490 nM; Ki [1]: 577 nM
4 | O=CN1[C@@H]2CC[C@H]1C[C@@H](OC(c1ccc(F)cc1)c1ccc(F)cc1)C2 [AHN 2-032] | 5380 |  |  |  |  |  |  | inhibition at 10 µM (muscarinic m1 receptors; Table IV footnote b, 10 μM): 54%; inhibition at 10 µM (muscarinic m2 receptors; Table IV footnote b, read-out: m2, % Inhibition at 10 μM): 62%; inhibition at 10 µM ([3]; Table IV footnote b, 10 μM, read-out: 5HHT, % Inhibition at 10 μM): 1.6%; inhibition at 10 µM [1, 6]: 29%
5 | CN1[C@@H]2CC[C@H]1C[C@@H](OC(c1ccccc1)c1ccc(Cl)cc1)C2 (stereo partly drawn) [Compound 7a, 4'-Cl-3α-(diphenylmethoxy)tropane] |  | 34 | 32 | 115 |  |  |  | 
6 | CN1[C@@H]2CC[C@H]1C[C@@H](OC(c1ccc(Cl)cc1)c1ccc(Cl)cc1)C2 [Compound 7b] |  |  | 43 |  | 1.49 |  |  | Ki [1]: > 6000 nM
7 | COc1ccc(C(O[C@H]2C[C@H]3CC[C@@H](C2)N3C)c2ccccc2)cc1 (stereo partly drawn) [Compound 7d, 4'-methoxy-3α-(diphenylmethoxy)tropane] |  | 30.5 | 30.9 | 468 | 0.0189 | 0.0042 |  | 
8 | COc1ccc(C(O[C@H]2C[C@H]3CC[C@@H](C2)N3C)c2ccc(OC)cc2)cc1 [Compound 7e] |  | 31 | 34 | 2880 | 1 | 0.0396 |  | 
9 | CN1[C@@H]2CC[C@H]1C[C@@H](OC(c1ccccc1)c1ccc([N+](=O)[O-])cc1)C2 (stereo partly drawn) [Compound 7f] |  | 54 | 29 | 219 | 0.0419 | 0.0071 | 197 | Ki [3, 8]: > 3570 nM
10 | CN1[C@@H]2CC[C@H]1C[C@@H](OC(c1ccccc1)c1ccc(C#N)cc1)C2 (stereo partly drawn) [Compound 7g] |  | 40 | 16 | 222 | 0.074 |  | 196 | Ki (muscarinic m1 receptors; read-out: m1, Ki): 0.0071 µM
11 | CN1[C@@H]2CC[C@H]1C[C@@H](OC(c1ccccc1)c1ccc(Br)cc1)C2 (stereo partly drawn) [Compound 7h] |  | 39 | 37 | 29 | 0.0391 | 0.0037 | 37.9 | 
12 | CN1[C@@H]2CC[C@H]1C[C@@H](OC(c1ccc(Br)cc1)c1ccc(Br)cc1)C2 [Compound 7i] |  | 41 | 41.1 | 34 |  |  | 91.6 | lower affinity for muscarinic m1 receptors than the parent benztropine (muscarinic m1 receptors): > 70 fold; inhibition at 10 µM (muscarinic m2 receptors; [9]): 66%
13 | CN1[C@@H]2CC[C@H]1C[C@@H](OC(c1ccccc1)c1ccc(F)cc1)C2 (stereo partly drawn) [Compound 7j] |  | 35.2 | 37.9 |  | 0.015 | 0.0011 |  | 
14 | CN1[C@@H]2CC[C@H]1C[C@@H](OC(c1ccccc1)c1ccc(Cl)c(Cl)c1)C2 (stereo partly drawn) [Compound 7k] |  | 66.2 | 56.5 | 47 | 0.141 | 0.0125 | 22.1 | Ki [3, 8]: > 1790 nM; Ki ([1]; read-out: NET Ki value in nM (bracketed), Table III, footnote d): > 4870 nM
15 | CN1[C@@H]2CC[C@H]1C[C@@H](OC(c1ccc(F)cc1)c1ccc(Cl)c(Cl)c1)C2 (stereo partly drawn) [Compound 7l] |  | 80.3 | 57.8 | 24 | 0.369 | 0.033 | 18.9 | Ki [3, 8]: > 691 nM; Ki [1]: > 9000 nM
16 | CN1[C@@H]2CC[C@H]1C[C@@H](OC(c1ccccc1)c1ccc(C(F)(F)F)cc1)C2 (stereo partly drawn) [Compound 7m] |  | 49.1 | 34.6 | 2160 | 1.51 | 0.0054 | 635 | selectivity for m1 over m2 sites (muscarinic m1 receptors; m1 vs. m2): ~300 fold
17 | CN1[C@@H]2CC[C@H]1C[C@@H](OC(c1ccccc1)c1ccc(C(C)(C)C)cc1)C2 (stereo partly drawn) [Compound 7n] |  | 24.7 | 37.6 | 4460 |  | 0.148 |  | inhibition at 10 µM (muscarinic m2 receptors; [9]): 54%
18 | Cc1ccc(C(O[C@H]2C[C@H]3CC[C@@H](C2)N3C)c2ccc(C)cc2)cc1 [Compound 7o] |  | 35.5 | 35.1 | 2540 | 0.716 | 0.0472 | 420 | 
19 | Cc1ccc(C(O[C@H]2C[C@H]3CC[C@@H](C2)N3C)c2ccccc2)cc1 (stereo partly drawn) [Compound 7p] |  | 35.4 | 31.8 | 512 | 0.0375 | 0.0027 | 187 | 
20 | Fc1ccc(C(O[C@H]2C[C@H]3CC[C@@H](C2)N3Cc2ccccc2)c2ccc(F)cc2)cc1 [JHW 005] | 285 |  |  |  |  |  |  | Ki (muscarinic m1 receptors; Table IV, read-out: m1, Ki): 2.49 µM; muscarinic m1 affinity relative to dopamine transporter affinity (muscarinic m1 receptors; in words): significantly lower binding affinities at the muscarinic m1 and m2 receptors as compared to binding affinities at the dopamine transporter; Ki (muscarinic m2 receptors; Table IV): 0.276 µM; muscarinic m2 affinity relative to dopamine transporter affinity (muscarinic m2 receptors): significantly lower binding affinities at the muscarinic m1 and m2 receptors as compared to binding affinities at the dopamine transporter; Ki [3]: 1810 nM
21 | CCCCN1[C@@H]2CC[C@H]1C[C@@H](OC(c1ccc(F)cc1)c1ccc(F)cc1)C2 [JHW 007] |  |  |  |  |  |  |  | Ki (muscarinic m1 receptors): 0.527 µM; muscarinic m1 affinity relative to dopamine transporter affinity (muscarinic m1 receptors): significantly lower binding affinities at the muscarinic m1 and m2 receptors as compared to binding affinities at the dopamine transporter; Ki (muscarinic m2 receptors; Table IV): 0.308 µM; muscarinic m2 affinity relative to dopamine transporter affinity (muscarinic m2 receptors): significantly lower binding affinities at the muscarinic m1 and m2 receptors as compared to binding affinities at the dopamine transporter; IC50 ([2]; Table IV footnote d: biphasic inhibition curve, IC50 in nM, read-out: [^3 H]DAU (inhibition of [^3 H]-Dopamine Uptake), biphasic inhibition curve): 371 nM
22 | Fc1ccc(C(O[C@H]2C[C@H]3CC[C@@H](C2)N3CCCc2ccccc2)c2ccc(F)cc2)cc1 [JHW 010] | 227 |  |  |  |  |  |  | Ki (muscarinic m1 receptors): 0.273 µM; Ki (muscarinic m2 receptors; Table IV): 0.499 µM
23 | Fc1ccc(C(O[C@H]2C[C@H]3CC[C@@H](C2)N3CC2CC2)c2ccc(F)cc2)cc1 [JHW 013] | 180 |  |  |  |  |  |  | Ki (muscarinic m1 receptors; Table IV, read-out: m1, Ki): 0.0077 µM; Ki [3]: 53.4 nM; Ki [1]: 117 nM
24 | Fc1ccc(CN2[C@@H]3CC[C@H]2C[C@@H](OC(c2ccc(F)cc2)c2ccc(F)cc2)C3)cc1 [JKW 009] | 204 |  |  |  |  |  |  | Ki (muscarinic m1 receptors): 0.00045 µM; Ki [3]: 53.4 nM; inhibition at 10 µM [1, 6]: 60%
25 | COC(=O)[C@H]1[C@@H](c2ccc(F)cc2)C[C@@H]2CC[C@H]1N2C [[^3 H]WIN 35,428, 2β-carbomethoxy-3β-(4-fluorophenyl)tropane, reference compound] |  |  |  |  |  |  |  | Bmax, high affinity component of [^3 H]WIN 35,428 binding ([4]; high affinity component, LIGAND analysis): 445±338 fmol/mg protein; Bmax, low affinity component of [^3 H]WIN 35,428 binding ([4]; low affinity component, LIGAND analysis): 1995±559 fmol/mg protein
26 | COC(=O)[C@H]1[C@@H](OC(=O)c2ccccc2)C[C@@H]2CC[C@H]1N2C [cocaine, reference compound] |  |  |  |  |  |  |  | mode of displacement of [^3 H]WIN 35,428 binding ([4]; monophasic vs. biphasic): biphasic displacement; also recorded: revealed two binding sites
